Source: US7081448B2, “Benzyllactobionamides as inhibitors of smooth muscle cell proliferation” (Wyeth, priority 1998, dated 2006)

System: Porcine Smooth Muscle Cell
Test: Effects of compounds on cell proliferation using 3H thymidine incorporation
Format: cell-based
Details: porcine smooth muscle cells, serum/growth factor stimulated; for IC50: 24–36 h, read-out: Porcine Smooth Muscle Cell Antiproliferation IC50; for Porcine Smooth Muscle Cell Antiproliferation, percent inhibition: @ 500 μM
Method: The compounds of this invention are useful as antiproliferative agents. The following procedures show the evaluation of representative compounds of this invention in standard pharmacological test procedure which measured ability of the evaluated compound to inhibit smooth muscle cell proliferation
Effects of Compounds on Cell Proliferation Using ^3H Thymidine Incorporation
Human and porcine smooth muscle cells were tested in early passage (generally passage 3–7) at sub-confluent conditions. Cultures were grown in 16 mm (24 well) multi-well culture dishes in medium 199 supplemented with 10% fetal bovine serum and 2% antibiotic/antimycotic. At sub-confluence, the cells were placed in a defined serum free medium (AIM-V; Gibco) for 24–48 h prior to initiating the experimental protocol. […] Compounds were added to each well at 50 fold dilution (20 μL/well) and the plates were incubated for 24–36 h at 37° C. in 5% CO2. Compounds were initially dissolved in 50% ethanol and serially diluted into media. Compounds were routinely evaluated at concentrations from 1 to 100 μM. As a control, grade II porcine intestinal mucosal heparin (sodium salt) was routinely evaluated in all cell preparations at concentrations from 0.1 to 100 μg/mL. At the completion of the test procedure, plates were placed on ice, washed three times with ice cold phosphate buffered saline (PBS) and incubated in ice cold 10% trichloroacetic acid (TCA) got 30 min to remove acid soluble proteins. Solution was transferred to scintillation vials containing 0.4 N HCl (500 μL/vial to neutralize NaOH) and each well was rinsed two times with water (500 μL) for a total volume of 2 mL/vial. Data was obtained, in triplicate, for both control and experimental samples. Control (100%) data was obtained from maximally stimulated cells, as the result of growth factor or serum stimulation. Experimental data was obtained from cells maximally stimulated with growth factor or serum and treated with compound. Data are expressed as an IC50 or percent inhibition in Table I below.

Compound	IC50	Porcine Smooth Muscle Cell Antiproliferation, percent inhibition
N-[3-(Acetylamino)-benzyl]-octa-O-sulfo-lactobionamide Octasodium Salt [Example 7]	122 µM	–
CC(=O)OC[C@H]1O[C@@H](O[C@@H]([C@H](OC(C)=O)[C@@H](OC(C)=O)C(=O)NCc2ccccc2)[C@@H](COC(C)=O)OC(C)=O)[C@H](OC(C)=O)[C@@H](OC(C)=O)[C@H]1OC(C)=O [Example 1, N-Benzyl-octa-O-acetyl-lactobionamide]	118 µM	–
CC(=O)OC[C@H]1O[C@@H](O[C@@H]([C@H](OC(C)=O)[C@@H](OC(C)=O)C(=O)NCc2ccc(N)cc2)[C@@H](COC(C)=O)OC(C)=O)[C@H](OC(C)=O)[C@@H](OC(C)=O)[C@H]1OC(C)=O [Example 4, N-(4-Amino-benzyl)-octa-O-acetyl-lactobionamide]	–	30% @ 500
CC(=O)OC[C@H]1O[C@@H](O[C@@H]([C@H](OC(C)=O)[C@@H](OC(C)=O)C(=O)NCc2cccc(N)c2)[C@@H](COC(C)=O)OC(C)=O)[C@H](OC(C)=O)[C@@H](OC(C)=O)[C@H]1OC(C)=O [Example 5, N-(3-Amino-benzyl)-octa-O-acetyl-lactobionamide]	–	12% @ 500
N-Benzyl-octa-O-sulfo-lactobionamide Octasodium Salt [Example 2]	–	45% @ 500
